Test results taken from ChEMBL document CHEMBL4251572, “Novel aminopyrimidinyl benzimidazoles as potentially antimicrobial agents: Design, synthesis and biological evaluation” (Eur J Med Chem, 2018).
Converted amounts (≈) assume the structure as drawn.

Assays:
Staphylococcus aureus [1] = test: Antibacterial activity against Staphylococcus aureus ATCC 25923 after 24 hrs by micro broth dilution assay; format: functional; conditions: ATCC 25923, 24 h
Staphylococcus aureus [2] = test: Antibacterial activity against methicillin-resistant Staphylococcus aureus N315 after 24 hrs by micro broth dilution assay; format: functional; conditions: N315, 24 h
Bacillus subtilis = test: Antibacterial activity against Bacillus subtilis after 24 hrs by micro broth dilution assay; format: functional
Micrococcus luteus = test: Antibacterial activity against Micrococcus luteus ATCC4698 after 24 hrs by micro broth dilution assay; format: functional; conditions: ATCC4698, 24 h
Bacillus = test: Antibacterial activity against Bacillus proteus ATCC 13315 after 24 hrs by micro broth dilution assay; format: functional; conditions: ATCC 13315, 24 h
Escherichia coli [3] = test: Antibacterial activity against Escherichia coli DH52 after 24 hrs by micro broth dilution assay; format: functional; conditions: DH52, 24 h
Pseudomonas aeruginosa = test: Antibacterial activity against Pseudomonas aeruginosa after 24 hrs by micro broth dilution assay; format: functional
Salmonella typhi = test: Antibacterial activity against Bacillus typhi after 24 hrs by micro broth dilution assay; format: functional, Salmonella enterica subsp. enterica serovar Typhi; conditions: Salmonella enterica
Escherichia coli [4] = test: Antibacterial activity against Escherichia coli JM109 after 24 hrs by micro broth dilution assay; format: functional; conditions: JM109, 24 h
Shigella dysenteriae = test: Antibacterial activity against Shigella dysenteriae after 24 hrs by micro broth dilution assay; format: functional
Candida albicans = test: Antifungal against Candida albicans ATCC 76615 after 24 hrs by two fold serial dilution method; format: functional; conditions: ATCC 76615, 24 h
Pichia norvegensis = test: Antifungal against Candida mycoderma after 24 hrs by two fold serial dilution method; format: functional
Cyberlindnera jadinii = test: Antifungal against Candida utilis after 24 hrs by two fold serial dilution method; format: functional; conditions: Williopsis jadinii
Saccharomyces cerevisiae = test: Antifungal against Saccharomyces cerevisiae after 24 hrs by two fold serial dilution method; format: functional
Aspergillus flavus = test: Antifungal against Aspergillus flavus after 24 hrs by two fold serial dilution method; format: functional

SMILES	MIC (Staphylococcus aureus [1]) [µg/mL]	MIC (Staphylococcus aureus [2]) [µg/mL]	MIC (Bacillus subtilis) [µg/mL]	MIC (Micrococcus luteus) [µg/mL]	MIC (Bacillus) [µg/mL]	MIC (Escherichia coli [3]) [µg/mL]	MIC (Pseudomonas aeruginosa) [µg/mL]	MIC (Salmonella typhi) [µg/mL]	MIC (Escherichia coli [4]) [µg/mL]	MIC (Shigella dysenteriae) [µg/mL]	MIC (Candida albicans) [µg/mL]	MIC (Pichia norvegensis) [µg/mL]	MIC (Cyberlindnera jadinii) [µg/mL]	MIC (Saccharomyces cerevisiae) [µg/mL]	MIC (Aspergillus flavus) [µg/mL]
CCCCCCCCn1c(-c2cc(-c3ccc(Cl)cc3)nc(N)n2)nc2ccccc21	256 (≈ 590 µM)	128 (≈ 295 µM)	2 (≈ 4.61 µM)	16 (≈ 36.9 µM)	256 (≈ 590 µM)	512 (≈ 1180 µM)	32 (≈ 73.7 µM)	4 (≈ 9.22 µM)	512 (≈ 1180 µM)	32 (≈ 73.7 µM)	8 (≈ 18.4 µM)	8 (≈ 18.4 µM)	8 (≈ 18.4 µM)	8 (≈ 18.4 µM)	256 (≈ 590 µM)
CCCCCCCn1c(C(=O)/C=C/c2ccc(Cl)cc2)nc2ccccc21	256 (≈ 672 µM)	512 (≈ 1340 µM)	256 (≈ 672 µM)	8 (≈ 21 µM)	512 (≈ 1340 µM)	32 (≈ 84 µM)	512 (≈ 1340 µM)	512 (≈ 1340 µM)	512 (≈ 1340 µM)	512 (≈ 1340 µM)	512 (≈ 1340 µM)	512 (≈ 1340 µM)	512 (≈ 1340 µM)	512 (≈ 1340 µM)	64 (≈ 168 µM)
CCCCCCCn1c(C(=O)/C=C/c2ccc(F)cc2)nc2ccccc21	512 (≈ 1400 µM)	64 (≈ 176 µM)	512 (≈ 1400 µM)	512 (≈ 1400 µM)	512 (≈ 1400 µM)	512 (≈ 1400 µM)	512 (≈ 1400 µM)	512 (≈ 1400 µM)	128 (≈ 351 µM)	512 (≈ 1400 µM)	512 (≈ 1400 µM)	512 (≈ 1400 µM)	> 512	512 (≈ 1400 µM)	512 (≈ 1400 µM)
CCCCCCn1c(C(=O)/C=C/c2ccc(C)cc2)nc2ccccc21	512 (≈ 1480 µM)	16 (≈ 46.2 µM)	512 (≈ 1480 µM)	512 (≈ 1480 µM)	512 (≈ 1480 µM)	512 (≈ 1480 µM)	512 (≈ 1480 µM)	512 (≈ 1480 µM)	512 (≈ 1480 µM)	512 (≈ 1480 µM)	512 (≈ 1480 µM)	512 (≈ 1480 µM)	512 (≈ 1480 µM)	512 (≈ 1480 µM)	512 (≈ 1480 µM)
CCCCCCCCn1c(C(=O)/C=C/c2ccc(Cl)cc2)nc2ccccc21	512 (≈ 1300 µM)	512 (≈ 1300 µM)	512 (≈ 1300 µM)	512 (≈ 1300 µM)	512 (≈ 1300 µM)	8 (≈ 20.3 µM)	512 (≈ 1300 µM)	128 (≈ 324 µM)	512 (≈ 1300 µM)	512 (≈ 1300 µM)	4 (≈ 10.1 µM)	512 (≈ 1300 µM)	512 (≈ 1300 µM)	4 (≈ 10.1 µM)	32 (≈ 81 µM)
CCCCn1c(-c2cc(-c3ccc(Cl)cc3Cl)nc(N)n2)nc2ccccc21	512 (≈ 1240 µM)	512 (≈ 1240 µM)	512 (≈ 1240 µM)	16 (≈ 38.8 µM)	512 (≈ 1240 µM)	512 (≈ 1240 µM)	128 (≈ 310 µM)	512 (≈ 1240 µM)	32 (≈ 77.6 µM)	256 (≈ 621 µM)	512 (≈ 1240 µM)	32 (≈ 77.6 µM)	64 (≈ 155 µM)	32 (≈ 77.6 µM)	512 (≈ 1240 µM)
O=C(/C=C/c1ccc(Cl)cc1)c1nc2ccccc2[nH]1	128 (≈ 453 µM)	512 (≈ 1810 µM)	512 (≈ 1810 µM)	64 (≈ 226 µM)	512 (≈ 1810 µM)	8 (≈ 28.3 µM)	512 (≈ 1810 µM)	512 (≈ 1810 µM)	256 (≈ 905 µM)	512 (≈ 1810 µM)	512 (≈ 1810 µM)	512 (≈ 1810 µM)	512 (≈ 1810 µM)	128 (≈ 453 µM)	32 (≈ 113 µM)
CCCCCCn1c(-c2cc(-c3ccc(F)cc3)nc(N)n2)nc2ccccc21	512 (≈ 1310 µM)	256 (≈ 657 µM)	512 (≈ 1310 µM)	16 (≈ 41.1 µM)	128 (≈ 329 µM)	512 (≈ 1310 µM)	128 (≈ 329 µM)	32 (≈ 82.2 µM)	512 (≈ 1310 µM)	512 (≈ 1310 µM)	256 (≈ 657 µM)	4 (≈ 10.3 µM)	8 (≈ 20.5 µM)	512 (≈ 1310 µM)	512 (≈ 1310 µM)
CCCCn1c(C(=O)/C=C/c2ccc(F)cc2)nc2ccccc21	4 (≈ 12.4 µM)	8 (≈ 24.8 µM)	4 (≈ 12.4 µM)	8 (≈ 24.8 µM)	512 (≈ 1590 µM)	64 (≈ 199 µM)	0.5 (≈ 1.55 µM)	8 (≈ 24.8 µM)	16 (≈ 49.6 µM)	4 (≈ 12.4 µM)	16 (≈ 49.6 µM)	64 (≈ 199 µM)	16 (≈ 49.6 µM)	512 (≈ 1590 µM)	128 (≈ 397 µM)
CCCCCCCn1c(-c2cc(-c3ccc(F)cc3)nc(N)n2)nc2ccccc21	512 (≈ 1270 µM)	256 (≈ 634 µM)	2 (≈ 4.96 µM)	16 (≈ 39.7 µM)	128 (≈ 317 µM)	16 (≈ 39.7 µM)	512 (≈ 1270 µM)	16 (≈ 39.7 µM)	256 (≈ 634 µM)	512 (≈ 1270 µM)	16 (≈ 39.7 µM)	512 (≈ 1270 µM)	8 (≈ 19.8 µM)	16 (≈ 39.7 µM)	16 (≈ 39.7 µM)
OC(Cn1cncn1)(Cn1cncn1)c1ccc(F)cc1F [FLUCONAZOLE]	–	–	–	–	–	–	–	–	–	–	1 (≈ 3.27 µM)	4 (≈ 13.1 µM)	16 (≈ 52.2 µM)	8 (≈ 26.1 µM)	256 (≈ 836 µM)
